According to US12187700B2, “Polymorphs and cocrystals of a cardiac troponin activator” (Amgen Inc., priority 2019, dated 2025):
≈ marks a conversion by molar mass, not a printed value. Where a name gives a salt, the structure may show the parent alone.

Key:
Type in all cases: physicochemical
[1] = Static storage stability of cocrystals and amorphous form by XRPD
[2] = Physical form stability (dehydration of the monohydrate); settings: under vacuum at ambient temperature, at temperatures greater than 25° C. or at low humidity
[3] = Moisture sorption (dynamic vapor sorption, hygroscopicity 0 to 95% RH); settings: for hygroscopicity: DVS, 0 to 95% RH
Protocol: Moisture Sorption Moisture sorption data was collected using a dynamic vapor sorption (DVS) analyzer. A sample size of approximately 5-10 mg was used in a quartz pan. Hygroscopicity was evaluated from 0 to 95% RH in increments of 5 or 10% RH. Data for adsorption and desorption cycles were collected. Equilibrium criteria were set at 0.002% weight change in 5 minute with a maximum equilibration time of 120 minutes.

[4] = Solid stability of drug substance (chemical by UPLC; physical by XRPD, DSC, TGA); settings: stored at 25° C./60% RH, 40° C./75% RH, 40° C./ambient or 60° C./ambient conditions
Protocol: Solid Stability Drug substance was stored at 25 C/60% RH, 40 C/75% RH, 40 C/ambient or 60 C/ambient conditions. Chemical stability was determined at each timepoint by dissolving the drug substance in 50% acetonitrile water for UPLC analysis. Physical stability was determined by analyzing the solid by XRPD, DSC and TGA.

[5] = Solubility in water (excess solid dispersed at least 24 hours at room temperature, UPLC-UV)
Protocol: Water: An excess of solid was added to water to produce a suspension and dispersed for at least 24 hours at room temperature. Suspensions were filtered. Filtrate was analyzed by UPLC-UV and compared against a standard curve to determine the solution concentration of the crystal form. Solids were analyzed by XRPD to determine the crystal form.

## CS(=O)(=O)c1cncc(C(=O)N2[C@@H](C(=O)N[C@@H](c3cc(F)c(C(F)(F)F)cc3F)C3CC3)C[C@H]3C[C@H]32)c1 [Amorphous Form]
[1]; static storage at 80° C./0% RH or 40° C./75% RH
  time to crystallization upon static storage: ≤ 1 week

## CS(=O)(=O)c1cncc(C(=O)N2[C@@H](C(=O)N[C@@H](c3cc(F)c(C(F)(F)F)cc3F)C3CC3)C[C@H]3C[C@H]32)c1 [Form III]
[2]
  stability of the monohydrate (dehydration): dehydrates

## CS(=O)(=O)c1cncc(C(=O)N2[C@@H](C(=O)N[C@@H](c3cc(F)c(C(F)(F)F)cc3F)C3CC3)C[C@H]3C[C@H]32)c1 [Form IV]
[3]
  hygroscopicity: non-hygroscopic
[4]
  time physically and chemically stable on storage: 13 weeks
[5]
  solubility in water: 10 µg/mL (≈ 18.4 µM)

## CS(=O)(=O)c1cncc(C(=O)N2[C@@H](C(=O)N[C@@H](c3cc(F)c(C(F)(F)F)cc3F)C3CC3)C[C@H]3C[C@H]32)c1 [Form I]
[3]
  hygroscopicity: non-hygroscopic
[4]
  time physically and chemically stable on storage: 14 weeks
[5]; thermodynamic from solid
  solubility: 13 µg/mL (≈ 23.9 µM)

## CS(=O)(=O)c1cncc(C(=O)N2[C@@H](C(=O)N[C@@H](c3cc(F)c(C(F)(F)F)cc3F)C3CC3)C[C@H]3C[C@H]32)c1 [Glycerol cocrystal]
[1]; 40° C./75% RH storage 7 d
  storage stability by XRPD: Stable

## CS(=O)(=O)c1cncc(C(=O)N2[C@@H](C(=O)N[C@@H](c3cc(F)c(C(F)(F)F)cc3F)C3CC3)C[C@H]3C[C@H]32)c1 [Hydrochloride Salt Form]
[3]
  hygroscopicity: hygroscopic
[3]; exposure to water during moisture sorption experiments or slurry in water
  salt stability upon exposure to water: disproportionates to Free Form

## CS(=O)(=O)c1cncc(C(=O)N2[C@@H](C(=O)N[C@@H](c3cc(F)c(C(F)(F)F)cc3F)C3CC3)C[C@H]3C[C@H]32)c1 [Urea cocrystal]
[1]; 25° C./97% RH storage 7 d
  storage stability by XRPD: Stable
